Source: patent US12502344B2, “Deodorants comprising alkylamido and alkenylamido-morpholinium compositions” (Colonial Chemical, Inc., priority 2021, dated 2025)

Assay: Deodorization evaluation, forced-preference panel test of acetic acid malodor on cotton balls
Settings: approx. 50 mg acetic acid on cotton ball in closed 32 oz jar; sprayed with 0.25 g, 0.5 g, 2.0 g and 5 g of approx. 0.8% by weight active in water; equilibrated 2 hrs; ten panelists; FIG. 1
Method: Deodorization Evaluations. Forced Preference Tests.
In the deodorization studies, two substances were tested for their ability to deodorize malodor: 1) Soyaethyl Morpholinium Ethosulfate (U.S. Pat. No. 4,851,214); and 2) Soyamidopropyl Ethylmorpholinium Ethosulfate (from this invention). These two products are Products 1 and 2, respectively, in FIG. 1. Both materials contain a quaternized morpholinium functionality within the deodorant molecule. All test formulations were approximately 0.8% by weight of active deodorizer/sequestrant in water.
Both products were tested as follows: Approximately 50 milligrams of acetic acid were placed on cotton balls (approximately 0.63 g in weight). The cotton balls were placed in 32 oz plastic jars, one per jar, and the lids were screwed on. After equilibrating for 4 hours the cotton balls were sprayed with predetermined amounts (0.25 g, 0.5 g, 2.0 g and 5 g) of deodorizing spray formulations and placed back in closed containers where they equilibrated for 2 hrs. In forced-preference testing, ten panelists were asked to open each jar and rate each on a scale from 1 to 10 with 10 being the highest level of acetic acid detected. The results of those ratings appear in FIG. 1 where the ratings given for each test substance is graphed versus the weight in grams of deodorizing formulations that had been applied to each cotton ball. […]

Compound: Soyamidopropyl Ethylmorpholinium Ethosulfate [Product 2]
- perceivable malodor (odor rating on a scale from 1 to 10, 10 being the highest level of acetic acid detected): reduced the perceivable malodor in a concentration-dependent fashion

Compound: CCCCCCCC/C=C\CCCCCCCC[N+]1(CC)CCOCC1 [Product 1, Soyaethyl Morpholinium Ethosulfate]
- perceivable malodor (odor rating on a scale from 1 to 10, 10 being the highest level of acetic acid detected): reduced the perceivable malodor in a concentration-dependent fashion
